Experimental data published in US20100173874A1, “Delivery of modulators of glutamate-mediated neurotransmission to the inner ear” (priority 2002, published 2010).
Entries after “also recorded” stand apart in the source; their conditions may differ.

Legend:
[1] = system: auditory nerve fibers; assay: Single unit recording of auditory nerve fibers during intracochlear perfusion (salicylate-induced excitation); format: in vivo, guinea pig
Experimental: (§1) Experiments were performed on adult guinea pigs weighing from about 250 g to 300 g. The animals were anaesthetized with urethane (1.4 g/kg, i.p.) and artificially respired. Supplemental doses of urethane (0.35 g/kg, i.p.) were administered every 2 hr, or more often if the animal withdrew its paw in response to pressure applied to the paw. The rectal temperature was maintained at about 38.5±1° C., and heart rate (normal range 260-330 beats/min) monitored using EKG electrodes. The external auditory canal was opened near the tympanic annulus, exposing the tympanic membrane and allowing sound to reach the drum without any obstruction. At the end of the experiment, the animals were euthanized by intracardiac injection of an overdose of sodium pentobarbitone.
Salicylate Tinnitus Model. Salicylate, the active component of aspirin, is of special concern in auditory science because it induces tinnitus in humans. The efficacy of agents to treat tinnitus was tested by measuring firing rate of the auditory nerve fibers in presence of salicylate.
Briefly, the test solutions were applied into the cochlea using a multi-barrel perfusion pipette (ASI Instruments) placed into a hole made in the basal turn scala tympani and allowed to flow out of the cochlea through a hole (0.2 mm diameter) made at the apex. The cochlear nerve was exposed using a posterior fossa approach. Extracellular action potentials from single auditory nerve fibers were recorded with glass microelectrodes. Once a single unit was isolated, spontaneous activity was averaged over 10 seconds. The unit's tuning curves were then determined by a computer-controlled, threshold-tracking program using a 200 ms tone burst presented at 3/s. The threshold criterion was a difference of 10 spikes/s, i.e., 2 spikes difference between the tone (200 ms) and non-tone (200 ms) counting intervals. The program determined the characteristic frequency (CF) and the frequency tuning of the fiber by measuring the Q10dB defined as the CF divided by the bandwidth at 10 dB above the CF threshold.
An experiment was carried out to determine the ability of perfused Glutamate antagonists to suppress salicylate-induced excitation.

[2] = system: rats; assay: Behavioral model of salicylate-induced tinnitus (active avoidance task)
Experimental: To verify that the excitatory action of sodium-salicylate on the auditory nerve fibers results in perception of tinnitus, a behavioral model was designed in rats based upon an active avoidance task. Animals were trained to respond to a conditioned stimulus consisting of a 10 kHz tone burst of 3 s duration.
(§2) CAP threshold shifts were calculated as the difference in dB between the auditory threshold at day 0 and the auditory threshold at each day. To avoid changes due to hearing loss, the intensity of sound eliciting behavioral responses was adjusted as a function of CAP threshold shift.
Gelfoam placed on the round window was used to apply drugs into the fluid of the cochlea.
To support the hypothesis that salicylate induced false positive via cochlear NMDA receptors, we applied other NMDA antagonists into the perilymphatic fluids using gelfoam placed on the round window of both ears.

[3] = system: guinea pigs; details: intracochlear perfusion; cited from earlier work
[4] = system: inner ear; details: acute cochlear perfusion; Wang et al., Neuroscience 2002; cited from earlier work
[5] = system: cochlea; assay: CAP amplitude after chronic round window perfusion; format: in vivo, guinea pig; details: 8 kHz tone burst stimulation, mean of 5 animals
Experimental: as §1

[6] = system: cochlea; assay: CAP amplitude after acute intracochlear perfusion; format: in vivo, guinea pig; details: 8 kHz tone burst stimulation, mean of 5 animals
Experimental: as §1

[7] = system: radial dendrites; details: intracochlear perfusion ten minutes prior to or concomitant with AMPA perfusion; cited from earlier work
[8] = system: rats; details: 300 mg/kg/day i.p. during 4 days; frequency range 2 to 26 KHz
Experimental: CAP thresholds were measured using an electrode chronically implanted on round window in response to a tone burst of 1 ms rise/fall time and 9 ms duration presented at a rate of 10 times per second.
as §2

[9] = intracochlear perfusion, 50 μM, 5 mM NaSal
[10] = 300 mg/kg/day i.p., daily during 4 days

Compound: COc1ccc2c(c1)c(CC(=O)O)c(C)n2C(=O)c1ccc(Cl)cc1 [indomethacin]
- spontaneous activity of the auditory nerve fiber ([1]; intracochlear perfusion, 100 μM in artificial perilymph, fiber coding for 8 kHz): did not change the spontaneous activity of the auditory nerve fiber

Compound: Dizocilpine [MK 801]
- score under salicylate treatment ([2]; 10 μM, gelfoam on the round window): reduction of the score still been unchanged
- number of false positive responses induced by salicylate ([2]; 10 μM, gelfoam on the round window, day 4 of salicylate treatment, n=10): drastically reduced the occurrence of the false positive responses
- neural excitation of auditory nerve induced by sodium-salicylate ([1]; intracochlear perfusion, 10 μM): suppressed neural excitation induced by sodium-salicylate
- spontaneous activity of the auditory nerve fiber ([1]; intracochlear perfusion, 10 μM): had no effect on spontaneous activity

Compound: O=C(O)c1cc(=O)c2ccccc2[nH]1 [kynurenate]
- protection against sound-induced synaptic damage [3]: protects against sound-induced synaptic damage

Compound: CC1CCCCC1(c1cccs1)N1CCCCC1 (stereo not shown) [gacyclidine, Gacyclidine]
- score under salicylate treatment ([2]; 50 μM, gelfoam on the round window): reduction of the score still been unchanged
- spontaneous activity of the auditory nerve fiber ([1]; intracochlear perfusion, 50 μM): had no effect on spontaneous activity; also recorded: not the spontaneous activity of the fiber
- neural excitation of auditory nerve induced by sodium-salicylate [1, 9]: suppressed neural excitation induced by sodium-salicylate; also recorded: suppressed neural excitation of auditory nerve induced by Na Salicylate

Compound: Nc1nc2ccc(OC(F)(F)F)cc2s1 [Riluzole]
- hearing after noise induced hearing loss [4]: rescues hearing after noise induced hearing loss
- mean amplitude of the CAP [5]: reduced the CAP amplitude in the dose dependent manner
- mean amplitude of the CAP [6]: reduce the CAP amplitude in a dose-dependent manner

Compound: O=c1[nH]c2cc([N+](=O)[O-])c([N+](=O)[O-])cc2[nH]c1=O [DNQX, 6-7-dinitorquinoxaline-2,3-dione]
- radial dendrite swelling [7]: prevented most of the occurrence of radial dendrite swelling

Compound: O=C([O-])c1ccccc1O.[Na+] [sodium-salicylate]
- hearing loss (CAP threshold) [8]: 30 dB
- number of false positives (responses without sound) [2, 10]: drastic increase of the number of false positives
- score (positive responses to sound, % of total) [2, 10]: reversible reduction of the score
- score (positive responses to sound) ([2]; salicylate days 2 to 5, sound intensity adjusted as a function of CAP threshold shift): no significant decrease in the score was observed
- false positive responses ([2]; salicylate treatment, sound intensity adjusted as a function of CAP threshold shift): false positive responses still remained
- spontaneous firing of the auditory nerve fibers ([1]; intracochlear application, 5 mM): reversibly increased spontaneous firing of the auditory nerve fibers

Compound: CNC(=O)N1N=C(c2ccc(N)cc2)c2cc3c(cc2C[C@H]1C)OCO3 [GYKI 53784]
- auditory nerve fiber activity evoked by sound ([1]; intracochlear perfusion, 50 μM): blocked both spontaneous activity and those evoked induced by sodium-salicylate or sound
- spontaneous activity of the auditory nerve fiber ([1]; intracochlear perfusion, 50 μM): blocked both the spontaneous and the evoked activity
- neural excitation of auditory nerve induced by sodium-salicylate [1, 9]: blocked both the spontaneous and the evoked activity
